Laboratory results from ChEMBL document CHEMBL3046902, “New dihydropyridine derivatives: anti-inflammatory, analgesic and docking studies” (2013).

How the values were obtained:
Assay type in all cases: functional
[1] = organism: Rattus norvegicus; test: Analgesic activity in Rattus norvegicus Wistar (rat) assessed as tail flick latency time after 90 min by tail immersion test (reference value: 3.25 +/- 0.005 secs)
[2] = organism: Rattus norvegicus; test: Analgesic activity in Rattus norvegicus Wistar (rat) assessed as tail flick latency time after 30 min by tail immersion test (reference value: 3.23 +/- 0.005 secs)
[3] = organism: Rattus norvegicus; test: Analgesic activity in Rattus norvegicus Wistar (rat) assessed as tail flick latency time after 60 min by tail immersion test (reference value: 3.34 +/- 0.005 secs)
[4] = system: Rattus norvegicus; test: Anti-inflammatory activity in Rattus norvegicus Wistar (rat) assessed as inhibition of carrageenan-induced paw edema at 20 mg/kg administered 30 min prior to carrageenan challenge measured after 0.5 hr by plethysmographic analysis relative to untreated control
[5] = system: Rattus norvegicus; test: Anti-inflammatory activity in Rattus norvegicus Wistar (rat) assessed as inhibition of carrageenan-induced paw edema at 20 mg/kg administered 30 min prior to carrageenan challenge measured after 2 hr by plethysmographic analysis relative to untreated control
[6] = system: Rattus norvegicus; test: Anti-inflammatory activity in Rattus norvegicus Wistar (rat) assessed as inhibition of carrageenan-induced paw edema at 20 mg/kg administered 30 min prior to carrageenan challenge measured after 1 hr by plethysmographic analysis relative to untreated control
[7] = system: Rattus norvegicus; test: Anti-inflammatory activity in Rattus norvegicus Wistar (rat) assessed as inhibition of carrageenan-induced paw edema at 20 mg/kg administered 30 min prior to carrageenan challenge measured after 3 hr by plethysmographic analysis relative to untreated control

SMILES	Time [1] [s]	Time [2] [s]	Time [3] [s]	inhibition in vivo at 20 mg/kg [4] [%]	inhibition in vivo at 20 mg/kg [5] [%]	inhibition in vivo at 20 mg/kg [6] [%]	inhibition in vivo at 20 mg/kg [7] [%]
CCOC(=O)C1=C(C)NC(C)=C(C(=O)OCC)C1c1ccc(OCC(=O)NN2C(=O)c3ccccc3C2=O)cc1	7.21	5.03	6.16	–	–	–	–
CCOC(=O)C1=C(C)NC(C)=C(C(=O)OCC)C1c1ccc(OCC(=O)n2nc(C)cc2C)cc1	6.78	4.76	5.93	13.7	–	–	–
CCOC(=O)C1=C(C)NC(C)=C(C(=O)OCC)C1c1ccc(OCC(=O)NNC(=O)CCC(=O)O)cc1	6.87	4.96	6.07	–	–	–	–
CCOC(=O)C1=C(C)NC(C)=C(C(=O)OCC)C1c1ccc(OCc2nnc(S)o2)cc1	6.97	4.97	6.07	42.4	61.7	–	–
CCOC(=O)C1=C(C)NC(C)=C(C(=O)OCC)C1c1ccc(OCC(=O)NNC(=O)c2cccs2)cc1	7.02	–	6.23	44	62.2	–	–
CCOC(=O)C1=C(C)NC(C)=C(C(=O)OCC)C1c1ccc(OCC(=O)NNC(=O)c2ccsc2Cl)cc1	6.46	4.85	5.74	12.9	–	–	–
CCOC(=O)C1=C(C)NC(C)=C(C(=O)OCC)C1c1ccc(OCC(=O)NNC(=O)c2sccc2Cl)cc1	6.45	4.34	5.67	–	57.2	–	–
CCOC(=O)C1=C(C)NC(C)=C(C(=O)OCC)C1c1ccc(OCC(=O)NNC(=O)c2ccccc2)cc1	6.37	4.62	5.87	9.1	44.5	–	–
CCOC(=O)C1=C(C)NC(C)=C(C(=O)OCC)C1c1ccc(OCC(=O)Nc2ccc(C)cc2)cc1	–	–	–	43.9	62.2	–	–
CCOC(=O)C1=C(C)NC(C)=C(C(=O)OCC)C1c1ccc(OCC(=O)Nc2nc3ccccc3s2)cc1	–	5.28	6.03	47.7	64.5	–	–
CCOC(=O)C1=C(C)NC(C)=C(C(=O)OCC)C1c1ccc(OCC(=O)NCc2ccccc2)cc1	–	–	–	–	8.9	16.1	–
CCOC(=O)C1=C(C)NC(C)=C(C(=O)OCC)C1c1ccc(OCC(=O)Nc2c(C)cccc2C)cc1	–	–	–	15.9	47.8	–	–
O=C([O-])Cc1ccccc1Nc1c(Cl)cccc1Cl.[K+] [DICLOFENAC POTASSIUM]	7.45	6.25	6.95	–	–	–	–
O=C(O)Cc1ccccc1Nc1c(Cl)cccc1Cl [DICLOFENAC SODIUM]	–	–	–	16.7	61.1	41	65.3
